Experimental data as given in patent US20240369536A1, “A CELL BASED TEST TO MONITOR DMARD DRUG RESPONSE” (UNIVERSITY OF ULSTER, priority 2021, published 2024).
Entries after “also recorded” stand apart in the source; their conditions may differ.

Key:
[1] = system: CD4+CD25+CD127− Treg cells; assay: FACS analysis of CD4, NFκB and FoxP3 in expanded Tregs stimulated with PMA with or without Sia; assay type: cell-based, human
Excerpt: PBMCs were labelled with antibodies (Becton Dickinson®, UK) against CD3, CD4, CD25, CD45, CD45RA, CD127 and CD43 antigens according to the manufacturer's instructions to assess relative Treg numbers. When FoxP3 and nuclear factor kappa-light-chain-enhancer of activated B cells (NFκB) antibody labelling was required, cells were pretreated with a lymphocyte membrane permeabilising solution (BD FACS™ Permeabilizing solution 2; Becton Dickinson®, UK). For monocyte analysis, cells were firstly enriched using a pan monocyte isolation kit and benchtop magnetic cell sorting device (autoMACS Pro separator; Miltenyi Biotec®). Enriched monocytes were labelled with antibodies (Becton Dickinson®, UK) against CD14, CD16 and CD169 antigens. Cell populations were analysed using fluorescence-activated cell sorting (FACS) in a flow cytometer with sorting capability (FACSAria™ III; Becton Dickinson, UK) with appropriate flow cytometer software (BD FACSDiva™ software version 8.0.1; Becton Dickinson, UK). Negative controls including unlabelled cells and isotype matched control antibodies were used to determine gating strategies. The positivity of a specific cell surface marker in labelled samples compared to the negative control was analysed as a percentage of the parent population. The median fluorescence intensity (MFI), indicating cell surface density of a specific marker, was also noted for cell populations. Mann Whitney tests were used to assess the statistical significance of differences between sample groups and graphs depict median values with error bars representing the interquartile range.
CD4^+CD25^+CD127^− Treg cells were sorted by FACS into phosphate buffered saline (PBS) containing 20% AB serum (Sigma-Aldrich®, UK), then washed and resuspended in serum-free cell culture medium (TexsMACS™ medium; Miltenyi Biotec®, UK), supplemented with 5% AB serum (Sigma-Aldrich®, UK), 1% Penicillin-Streptomycin (Gibco®, Ireland) and human IL-2 (Miltenyi Biotec®, UK). Trypan blue (Sigma-Aldrich®, UK) was used to ensure cell viability after sorting was >90-95%. A human Treg expansion kit (Miltenyi Biotec, UK) was used to induce Treg proliferation in order to expand the population to sufficient cell numbers for experiments. Following 14 days of expansion, Tregs were stimulated with 10 ng/ml phorbol 12-myristate 13-acetate (PMA) (Sigma-Aldrich®, UK) and 500 ng/ml ionomycin (10) (Invitrogen®) for 24 hours. During the same 24-hour stimulation, Tregs were incubated with or without 10 mM sialic acid (Sia) (Sigma-Aldrich®, UK). […] Cell culture conditioned media was retained and analysed for secreted cytokine levels by enzyme-linked immunosorbent assay (ELISA), described below. […]

[2] = system: CD4+CD25+CD127− Treg cells; assay: ELISA of secreted cytokines (TNFα, IL-10, IFNγ) in conditioned media of Treg cultures; assay type: cell-based, human; details: PMA relative to controls
Excerpt: CD4^+CD25^+CD127^− Treg cells were sorted by FACS into phosphate buffered saline (PBS) containing 20% AB serum (Sigma-Aldrich®, UK), then washed and resuspended in serum-free cell culture medium (TexsMACS™ medium; Miltenyi Biotec®, UK), supplemented with 5% AB serum (Sigma-Aldrich®, UK), 1% Penicillin-Streptomycin (Gibco®, Ireland) and human IL-2 (Miltenyi Biotec®, UK). Trypan blue (Sigma-Aldrich®, UK) was used to ensure cell viability after sorting was >90-95%. A human Treg expansion kit (Miltenyi Biotec, UK) was used to induce Treg proliferation in order to expand the population to sufficient cell numbers for experiments. Following 14 days of expansion, Tregs were stimulated with 10 ng/ml phorbol 12-myristate 13-acetate (PMA) (Sigma-Aldrich®, UK) and 500 ng/ml ionomycin (10) (Invitrogen®) for 24 hours. During the same 24-hour stimulation, Tregs were incubated with or without 10 mM sialic acid (Sia) (Sigma-Aldrich®, UK). At baseline, 24 hr and 48 hr time points (Day 0, Day 1 and Day 2), cells were removed from culture and labelled prior to FACS analysis of extracellular markers CD4, CD25, CD127 and CD43, and intracellular markers NFκB and FoxP3. Cell culture conditioned media was retained and analysed for secreted cytokine levels by enzyme-linked immunosorbent assay (ELISA), described below. A preliminary experiment included a Day 2 time-point, however latter experiments were concluded at the Day 1 time-point as this was sufficient to observe Sia treatment effects. […]
Following cell culture experiments, conditioned media were analysed to quantify TNFα, IL-10 and IFN-γ by ELISA using appropriate ELISA reagent kits (DuoSet® ELISA development kits; R&D Systems®, UK) according to the manufacturer's instructions. The optical density (OD) was determined using a spectrophotometer (Epoch™ microplate spectrophotometer; BioTek® Ltd, UK) with appropriate software (Gen5™; BioTek® Ltd, UK). The plate was read at a wavelength of 450 nm and wavelength correction of OD at 540 nm used. […]

SMILES: CCCCCCCCCCCCCC(=O)O[C@@H]1[C@@H](C)[C@@]2(O)[C@@H](C=C(CO)C[C@]3(O)C(=O)C(C)=C[C@@H]23)[C@@H]2C(C)(C)[C@]12OC(C)=O [PMA, phorbol 12-myristate 13-acetate]
- CD4 cell-surface expression (percentage of CD4 positivity) ([1]; 10 ng/ml PMA + 500 ng/ml ionomycin, compared to CTL cells without stimulation): reduced; also recorded: reduction
- percentage of cells with intracellular expression of FoxP3 ([1]; PMA stimulation, both CD43+ and CD43− Tregs, each time point, p<0.01): increased
- percentage of cells with intracellular expression of NFκB ([1]; PMA stimulation, both CD43+ and CD43− Tregs, each time point, p<0.05): increased
- IFNγ levels secreted into media ([2]; Day 1, p<0.01): significantly higher
- levels of IL-10 secreted into media ([2]; Day 1 and Day 2, p<0.05): significantly increased
- levels of TNFα secreted into media ([2]; Day 1 and Day 2, p<0.05): significantly increased

SMILES: CC(=O)N[C@H]1[C@H]([C@H](O)[C@H](O)CO)OC(O)(C(=O)O)C[C@@H]1O (stereo partly shown) [Sia, sialic acid]
- effect on NFκB Tregs ([1]; 10 mM Sia added to PMA-stimulated Tregs, after 2 days): no significant effect
